Assay results reported in patent publication US9113629B2, “4-amino-6-(4-substituted-phenyl)-picolinates and 6-amino-2-(4-substituted-phenyl)-pyrimidine-4-carboxylates and their use as herbicides” (DOW AGROSCIENCES LLC, priority 2013, dated 2015).

Legend:
LAMSS = assay: Post-emergent Test III, herbicidal activity in wheat and barley; type: in vivo; conditions: Table 8, 21 d; for GR50 LAMSS: dose for 50 percent growth reduction; for GR50 LAMSS / GR80 LAMSS: probit analysis; for GR80 LAMSS: dose for 80 percent growth reduction; for pest or weed control at 35 g/ha / pest or weed control at 70 g/ha / pest or weed control at 140 g/ha: post-emergence, 504 h, post-emergent, read-out: Visual Growth Reduction (%) 21 Days After Application LAMSS; for pest or weed control at 35 g/ha: 35 g ai/ha; for pest or weed control at 70 g/ha: 70 g ai/ha; for pest or weed control at 140 g/ha: 140 g ai/ha
Description: (§1) Post-emergent Test III. Seeds of the desired test plant species were planted in Sun Gro MetroMix® 306 planting mixture, which typically has a pH of 6.0 to 6.8 and an organic matter content of about 30 percent, in plastic pots with a surface area of 103.2 square centimeters (cm^2). When required to ensure good germination and healthy plants, a fungicide treatment and/or other chemical or physical treatment was applied. The plants were grown for 7-36 days (d) in a greenhouse with an approximate 14 hour (h) photoperiod which was maintained at about 18° C. during the day and 17° C. during the night. Nutrients and water were added on a regular basis and supplemental lighting was provided with overhead metal halide 1000-Watt lamps as necessary. The plants were employed for testing when they reached the second or third true leaf stage.
(§2) A weighed amount, determined by the highest rate to be tested, of each test compound was placed in a 25 mL glass vial and was dissolved in 4 mL of a 97:3 v/v mixture of acetone and DMSO to obtain concentrated stock solutions. […] The concentrated stock solutions obtained were diluted with 20 mL of an aqueous mixture containing acetone, water, isopropyl alcohol, DMSO, Agri-Dex crop oil concentrate, and X-77 surfactant in a 48:39:10:1.5:1.5:0.02 v/v ratio to obtain spray solutions containing the highest application rates. Additional application rates were obtained by serial dilution of 12 mL of the high rate solution into a solution containing 2 mL of 97:3 v/v mixture of acetone and DMSO and 10 mL of an aqueous mixture containing acetone, water, isopropyl alcohol, DMSO, Agri-Dex crop oil concentrate, and X-77 surfactant in a 48:39:10:1.5:1.5:0.02 v/v ratio to obtain ½×, ¼×, ⅛× and 1/16× rates of the high rate. Compound requirements are based upon a 12 mL application volume at a rate of 187 liters per hectare (L/ha). Formulated compounds were applied to the plant material with an overhead Mandel track sprayer equipped with 8002E nozzles calibrated to deliver 187 L/ha over an application area of 0.503 square meters at a spray height of 18 inches (43 cm) above the average plant canopy height. Control plants were sprayed in the same manner with the solvent blank.
(§3) The treated plants and control plants were placed in a greenhouse as described above and watered by subirrigation to prevent wash-off of the test compounds. After 21 d, the condition of the test plants as compared with that of the untreated plants was determined visually and scored on a scale of 0 to 100 percent where 0 corresponds to no injury and 100 corresponds to complete kill.
(§4) By applying the well-accepted probit analysis as described by J. Berkson in Journal of the American Statistical Society, 48, 565 (1953) and by D. Finney in “Probit Analysis” Cambridge University Press (1952), herbicidal injury of a specific compound at various rates can be used to calculate GR20, GR50, GR80 and GR90 values, which are defined as growth reduction factors that correspond to the effective dose of herbicide required to provide plant growth reduction (GR) of 20 percent, 50 percent, 80 percent and 90 percent, respectively. Probit analysis was applied to data collected from multiple dose rates of individual compounds utilizing the procedures explained in the following examples. The analysis of those dose rates is captured in the following tables.

[1] = tested on: TRZSS: wheat, including spring and winter (Triticum aestivum); assay: as above; type: in vivo; conditions: Table 8, 21 d; for GR20 TRZSS: dose for 20 percent growth reduction; for pest or weed control at 35 g/ha / pest or weed control at 70 g/ha / pest or weed control at 140 g/ha: Triticum aestivum, post-emergence, 504 h, post-emergent, read-out: Visual Growth Reduction (%) 21 Days After Application TRZSS; for pest or weed control at 35 g/ha: 35 g ai/ha; for pest or weed control at 70 g/ha: 70 g ai/ha; for pest or weed control at 140 g/ha: 140 g ai/ha
Description: as §1, §2, §3, §4

[2] = tested on: HORSS: barley, including spring and winter (Hordeum vulgare); assay: as above; type: in vivo; conditions: Table 8, 21 d; for pest or weed control at 35 g/ha / pest or weed control at 70 g/ha / pest or weed control at 140 g/ha: Hordeum vulgare, post-emergence, 504 h, post-emergent, read-out: Visual Growth Reduction (%) 21 Days After Application HORSS; for pest or weed control at 35 g/ha: 35 g ai/ha; for pest or weed control at 70 g/ha: 70 g ai/ha; for GR20 HORSS: dose for 20 percent growth reduction; for pest or weed control at 140 g/ha: 140 g ai/ha
Description: as §1, §2, §3, §4

[3] = tested on: KCHSC: kochia (Kochia scoparia); assay: as above; type: in vivo; conditions: Table 8, 21 d; for pest or weed control at 35 g/ha / pest or weed control at 70 g/ha / pest or weed control at 140 g/ha: Bassia scoparia, post-emergence, 504 h, post-emergent, read-out: Visual Growth Reduction (%) 21 Days After Application KCHSC; for pest or weed control at 35 g/ha: 35 g ai/ha; for pest or weed control at 70 g/ha: 70 g ai/ha; for GR50 KCHSC: dose for 50 percent growth reduction; for GR50 KCHSC / GR80 KCHSC: probit analysis; for GR80 KCHSC: dose for 80 percent growth reduction; for pest or weed control at 140 g/ha: 140 g ai/ha
Description: as §1, §2, §3, §4

[4] = tested on: MATSS: scented mayweed (Matricaria chamomilla), pineappleweed (Matricaria matricarioides); assay: as above; type: in vivo; conditions: Table 8, 21 d; for pest or weed control at 35 g/ha / pest or weed control at 70 g/ha / pest or weed control at 140 g/ha: Matricaria chamomilla, post-emergence, 504 h, post-emergent, read-out: Visual Growth Reduction (%) 21 Days After Application MATSS; for pest or weed control at 35 g/ha: 35 g ai/ha; for pest or weed control at 70 g/ha: 70 g ai/ha; for GR50 MATSS: dose for 50 percent growth reduction; for GR50 MATSS / GR80 MATSS: probit analysis; for GR80 MATSS: dose for 80 percent growth reduction; for pest or weed control at 140 g/ha: 140 g ai/ha
Description: as §1, §2, §3, §4

[5] = dose for 80 percent growth reduction, probit analysis

| SMILES | GR50 LAMSS (LAMSS) [g ai/ha] | GR80 LAMSS (LAMSS) [g ai/ha] | pest or weed control at 35 g/ha (LAMSS) [%] | pest or weed control at 70 g/ha (LAMSS) [%] | GR20 TRZSS ([1]; probit analysis) [g ai/ha] | pest or weed control at 35 g/ha [1] [%] | pest or weed control at 70 g/ha [1] [%] | pest or weed control at 35 g/ha [2] [%] | pest or weed control at 70 g/ha [2] [%] | GR20 HORSS ([2]; probit analysis) [g ai/ha] | pest or weed control at 35 g/ha [3] [%] | pest or weed control at 70 g/ha [3] [%] | GR50 KCHSC [3] [g ai/ha] | GR80 KCHSC [3] [g ai/ha] | pest or weed control at 35 g/ha [4] [%] | pest or weed control at 70 g/ha [4] [%] | GR50 MATSS [4] [g ai/ha] | GR80 MATSS [4] [g ai/ha] | melting point [°C] | pest or weed control at 140 g/ha (LAMSS) [%] | also measured |
| --- | --- | --- | --- | --- | --- | --- | --- | --- | --- | --- | --- | --- | --- | --- | --- | --- | --- | --- | --- | --- | --- |
| Nc1cc(-c2cc(F)c(Br)cc2F)nc(C(=O)O)c1Cl [Compound 3] | 1 | 1 | 95 to 100 | 95 to 100 | 1 | 85 to 94 | 85 to 94 | 85 to 94 | 95 to 100 | 1 | 95 to 100 | 95 to 100 | 2 | 8 | 95 to 100 | 95 to 100 | 4 | 11 | 172 to 174 | – | – |
| COC(=O)c1nc(-c2ccc(I)c(F)c2)c(C)c(N)c1Cl [Compound 79, Methyl 4-amino-3-chloro-6-(3-fluoro-4-iodophenyl)-5-methylpicolinate] | 27 | 72 | 60 to 74 | 60 to 74 | 2 | 75 to 84 | 85 to 94 | 85 to 94 | 85 to 94 | 1 | 60 to 74 | 75 to 84 | 24 | 70 | 75 to 84 | 85 to 94 | 13 | 46 | 121 to 124 | – | – |
| COC(=O)c1nc(-c2ccc(C#N)c(F)c2)c(F)c(N)c1Cl [Compound 135, methyl 4-amino-3-chloro-6-(4-cyano-3-fluorophenyl)-5-fluoropicolinate] | 1 | 19 | 75 to 84 | 85 to 94 | 16 | 30 to 44 | 30 to 44 | 0 to 29 | 30 to 44 | 37 | 75 to 84 | 75 to 84 | 3 | 130 | 30 to 44 | 30 to 44 | 125 | >140 | – | 85 to 94 | GR80 TRZSS [1, 5]: >140 g ai/ha; pest or weed control at 140 g/ha [1]: 45 to 59%; pest or weed control at 140 g/ha [2]: 60 to 74%; GR80 HORSS [2, 5]: >140 g ai/ha; pest or weed control at 140 g/ha [3]: 75 to 84%; pest or weed control at 140 g/ha [4]: 45 to 59% |
| Nc1c(Cl)c(C(=O)O)nc(-c2ccc(I)c(F)c2)c1Cl [Compound 145, 4-Amino-3,5-dichloro-6-(3-fluoro-4-iodophenyl)picolinic acid] | 4 | 13 | 95 to 100 | 95 to 100 | 1 | 85 to 94 | 85 to 94 | 85 to 94 | 95 to 100 | 1 | 60 to 74 | 60 to 74 | 37 | 112 | 95 to 100 | 95 to 100 | 3 | 10 | – | 95 to 100 | pest or weed control at 140 g/ha [1]: 85 to 94%; pest or weed control at 140 g/ha [2]: 95 to 100%; pest or weed control at 140 g/ha [3]: 75 to 84%; pest or weed control at 140 g/ha [4]: 95 to 100% |
| COC(=O)c1nc(-c2ccc(Br)c(F)c2)nc(N)c1OC [Compound 171, Methyl 6-amino-2-(4-bromo-3-fluorophenyl)-5-methoxypyrimidine-4-carboxylate] | 2 | 11 | 85 to 94 | 95 to 100 | 11 | 75 to 84 | 85 to 94 | 45 to 59 | 60 to 74 | 20 | 85 to 94 | 95 to 100 | – | 23 | 30 to 44 | 30 to 44 | >140 | >140 | – | – | – |
